Mutagenic call data for 4 molecules are collected here from PubChem BioAssay AID1259407 (Chemical Carcinogenesis Research Information System (CCRIS), 2018).

The structures appear in SMILES notation. The source made the active and inactive calls. How the calls were made is not given here.

The test system of the data set is CCRIS mutagenicity, Ames/micronucleus/aberration tests. As to the kind of experiment: CCRIS mutagenicity studies.
Setting [1] is: Test System: AMES SALMONELLA TYPHIMURIUM, Strain/Indicator: TA97, Metabolic Activation: NONE, Method: PREINCUBATION
The mark [2] stands for this setting: Test System: AMES SALMONELLA TYPHIMURIUM, Strain/Indicator: TA100, Metabolic Activation: NONE, Method: STANDARD PLATE.

`O=S(O)O`: the mutagenic call reads like this: (Test System: AMES SALMONELLA TYPHIMURIUM, Strain/Indicator: GW19, Metabolic Activation: NONE, Method: PREINCUBATION (30-90 MIN)) “inactive; negative”; (Test System: AMES SALMONELLA TYPHIMURIUM, Strain/Indicator: GW19, Metabolic Activation: NONE, Method: STANDARD PLATE) “inactive; negative”; (Test System: AMES SALMONELLA TYPHIMURIUM, Strain/Indicator: HISG46, Metabolic Activation: NONE, Method: PREINCUBATION) “active; positive”; (Test System: AMES SALMONELLA TYPHIMURIUM, Strain/Indicator: HISG46, Metabolic Activation: NONE, Method: PREINCUBATION (30-120 MIN)) “active; positive”; (Test System: AMES SALMONELLA TYPHIMURIUM, Strain/Indicator: HISG46, Metabolic Activation: NONE, Method: STANDARD PLATE) “active; positive”; (Test System: AMES SALMONELLA TYPHIMURIUM, Strain/Indicator: TA92, Metabolic Activation: NONE, Method: PREINCUBATION (30-90 MIN)) “active; positive”. Besides, the mutagenic call reads like this: (Test System: AMES SALMONELLA TYPHIMURIUM, Strain/Indicator: TA92, Metabolic Activation: NONE, Method: STANDARD PLATE) “inactive; negative”; under setting [1], “inactive; negative”; (Test System: AMES SALMONELLA TYPHIMURIUM, Strain/Indicator: TA97, Metabolic Activation: RAT, LIVER, S-9, AROCLOR 1254, Method: PREINCUBATION) “inactive; negative”; (Test System: AMES SALMONELLA TYPHIMURIUM, Strain/Indicator: TA98, Metabolic Activation: NONE, Method: STANDARD PLATE) “inactive; negative”; (Test System: AMES SALMONELLA TYPHIMURIUM, Strain/Indicator: TA98, Metabolic Activation: RAT, LIVER, S-9, AROCLOR 1254, Method: STANDARD PLATE) “inactive; negative”; under setting [2], “inactive; negative”. For the same molecule, the mutagenic call runs as follows: (Test System: AMES SALMONELLA TYPHIMURIUM, Strain/Indicator: TA100, Metabolic Activation: RAT, LIVER, S-9, AROCLOR 1254, Method: STANDARD PLATE) “inactive; negative”; (Test System: AMES SALMONELLA TYPHIMURIUM, Strain/Indicator: TA102, Metabolic Activation: NONE, Method: PREINCUBATION) “inactive; negative”; (Test System: AMES SALMONELLA TYPHIMURIUM, Strain/Indicator: TA102, Metabolic Activation: RAT, LIVER, S-9, AROCLOR 1254, Method: PREINCUBATION) “inactive; negative”; (Test System: AMES SALMONELLA TYPHIMURIUM, Strain/Indicator: TA1535, Metabolic Activation: NONE, Method: STANDARD PLATE) “inactive; negative”; (Test System: AMES SALMONELLA TYPHIMURIUM, Strain/Indicator: TA1535, Metabolic Activation: RAT, LIVER, S-9, AROCLOR 1254, Method: STANDARD PLATE) “inactive; negative”; (Test System: AMES SALMONELLA TYPHIMURIUM, Strain/Indicator: TA1537, Metabolic Activation: NONE, Method: STANDARD PLATE) “inactive; negative”. Besides, the mutagenic call by setting is: (Test System: AMES SALMONELLA TYPHIMURIUM, Strain/Indicator: TA1537, Metabolic Activation: RAT, LIVER, S-9, AROCLOR 1254, Method: STANDARD PLATE) “inactive; negative”; (Test System: AMES SALMONELLA TYPHIMURIUM, Strain/Indicator: TA1538, Metabolic Activation: NONE, Method: STANDARD PLATE) “inactive; negative”; (Test System: AMES SALMONELLA TYPHIMURIUM, Strain/Indicator: TA1538, Metabolic Activation: RAT, LIVER, S-9, AROCLOR 1254, Method: STANDARD PLATE) “inactive; negative”; (Test System: AMES SALMONELLA TYPHIMURIUM, Strain/Indicator: TA1950, Metabolic Activation: NONE, Method: PREINCUBATION (30-90 MIN)) “active; positive”; (Test System: AMES SALMONELLA TYPHIMURIUM, Strain/Indicator: TA1950, Metabolic Activation: NONE, Method: STANDARD PLATE) “active; positive”; (Test System: AMES SALMONELLA TYPHIMURIUM, Strain/Indicator: TA2410, Metabolic Activation: NONE, Method: PREINCUBATION (30-90 MIN)) “active; positive”. For the same molecule, the mutagenic call was “inactive; negative” (Test System: AMES SALMONELLA TYPHIMURIUM, Strain/Indicator: TA2410, Metabolic Activation: NONE, Method: STANDARD PLATE); “active; positive” (Test System: AMES SALMONELLA TYPHIMURIUM, Strain/Indicator: TS24, Metabolic Activation: NONE, Method: PREINCUBATION (30-90 MIN)); “active; positive” (Test System: AMES SALMONELLA TYPHIMURIUM, Strain/Indicator: TS24, Metabolic Activation: NONE, Method: STANDARD PLATE); “inactive; negative” (Test System: E. COLI, Strain/Indicator: WP2, Metabolic Activation: NONE, Method: STANDARD PLATE); “inactive; negative” (Test System: E. COLI, Strain/Indicator: WP2, Metabolic Activation: RAT, LIVER, S-9, AROCLOR 1254, Method: STANDARD PLATE).

Take `CCCCCCCCCCC1CO1` (stereo not drawn): the mutagenic call is “inactive; negative” (Test System: AMES SALMONELLA TYPHIMURIUM, Strain/Indicator: TA97, Metabolic Activation: HAMSTER, LIVER, S-9, AROCLOR 1254 (30%), Method: PREINCUBATION); “inactive; negative” under setting [1]; “inactive; negative” (Test System: AMES SALMONELLA TYPHIMURIUM, Strain/Indicator: TA97, Metabolic Activation: RAT, LIVER, S-9, AROCLOR 1254 (10% & 30%), Method: PREINCUBATION); “inactive; negative” (Test System: AMES SALMONELLA TYPHIMURIUM, Strain/Indicator: TA98, Metabolic Activation: HAMSTER, LIVER, S-9, AROCLOR 1254 (10% & 30%), Method: PREINCUBATION); “inactive; negative” (Test System: AMES SALMONELLA TYPHIMURIUM, Strain/Indicator: TA98, Metabolic Activation: NONE, Method: PREINCUBATION); “inactive; negative” (Test System: AMES SALMONELLA TYPHIMURIUM, Strain/Indicator: TA98, Metabolic Activation: RAT, LIVER, S-9, AROCLOR 1254 (10% & 30%), Method: PREINCUBATION). Also, the mutagenic call is, setting by setting: (Test System: AMES SALMONELLA TYPHIMURIUM, Strain/Indicator: TA100, Metabolic Activation: HAMSTER, LIVER, S-9, AROCLOR 1254 (10% & 30%), Method: PREINCUBATION) “inactive; negative”; (Test System: AMES SALMONELLA TYPHIMURIUM, Strain/Indicator: TA100, Metabolic Activation: NONE, Method: PREINCUBATION) “inactive; negative”; (Test System: AMES SALMONELLA TYPHIMURIUM, Strain/Indicator: TA100, Metabolic Activation: RAT, LIVER, S-9, AROCLOR 1254 (10% & 30%), Method: PREINCUBATION) “inactive; negative”; (Test System: AMES SALMONELLA TYPHIMURIUM, Strain/Indicator: TA1535, Metabolic Activation: HAMSTER, LIVER, S-9, AROCLOR 1254 (10% & 30%), Method: PREINCUBATION) “inactive; negative”; (Test System: AMES SALMONELLA TYPHIMURIUM, Strain/Indicator: TA1535, Metabolic Activation: NONE, Method: PREINCUBATION) “inactive; negative”; (Test System: AMES SALMONELLA TYPHIMURIUM, Strain/Indicator: TA1535, Metabolic Activation: RAT, LIVER, S-9, AROCLOR 1254 (10% & 30%), Method: PREINCUBATION) “inactive; negative”. Also, the mutagenic call reads like this: (Test System: AMES SALMONELLA TYPHIMURIUM, Strain/Indicator: TA1537, Metabolic Activation: HAMSTER, LIVER, S-9, AROCLOR 1254 (10% & 30%), Method: PREINCUBATION) “inactive; negative”; (Test System: AMES SALMONELLA TYPHIMURIUM, Strain/Indicator: TA1537, Metabolic Activation: NONE, Method: PREINCUBATION) “inactive; negative”; (Test System: AMES SALMONELLA TYPHIMURIUM, Strain/Indicator: TA1537, Metabolic Activation: RAT, LIVER, S-9, AROCLOR 1254 (10% & 30%), Method: PREINCUBATION) “inactive; negative”; (Test System: UDS MOUSE EPIDERMIS IN VIVO/IN VITRO, Strain/Indicator: HOS:HR-1/THYMIDINE INCORPORATION, Metabolic Activation: NONE, Method: LIQUID SCINTILLATION) “inactive; negative”.

As to `CCCCOc1ccc(N=O)cc1`, the mutagenic call under setting [2] was “active; positive”.

Turning to `COC(=O)CCN(N=O)C(N)=O`, the mutagenic call reads like this: (Test System: E. COLI B, Strain/Indicator: H/R30R, Metabolic Activation: NONE) “active; positive”; (Test System: E. COLI B, Strain/Indicator: HS30R, Metabolic Activation: NONE) “active; positive”.
